“Also recorded” adds a separate entry of the source.
What was measured:
human C9 = assay: Zn2+-induced human C9 polymerization assay; type: biochemical; conditions: for inhibition of Zn2+-induced C9 polymerization at 5.24 μmol: peptide 5.24 μmol
Description: Certain concentrations of C9 can polymerize when induced by certain concentrations of Zn^2+. However, the polymerization can be suppressed when C9 binds to inhibitors. C9 polymerization assays were used to evaluate the inhibitory effect of the peptides on Zn^2+-induced polymerization of human C9. Briefly, 2 μg C9 was preincubated with the peptides in 20 mM Tris buffer (pH 7.2) at 37°C for 40 min and then 50 μM Zn^2+ was added to induce C9 polymerization at 37°C for 2 h. The samples were subjected to 2.5–15% polyacrylamide gel electrophoresis to assess the inhibitory effects of the peptides on human C9 polymerization; the gels were visualized by staining with Coomassie blue.
(§1) Figure 1 Modified peptide bound to human complement C9 and inhibited C9 polymerization-induced bio-function. (A) Microscale thermophoresis assay (NanoTemper) in which biomolecular interactions were quantitated by examining the motion of the molecules along a microscopic temperature gradient induced by an infrared laser. Changes in the molecular hydration shell, charge, or size are measured using a fluorescent probe (NT-647) bound covalently to the human C9. Binding of control, modified and original peptides to human C9 were studied. Data points indicate the differences in normalized fluorescence (%) generated by peptides binding to […], and curves indicate the calculated fits. […] Error bars represent the standard error of three independent measurements. […] Lane M: standard protein markers; lane 1: blank control (C9 without Zn^2+); lane 2: positive control (C9 with Zn^2+); lane 3: 5.24 μmol original peptide; lanes 4–6, 1.31, 2.62, and 5.24 μmol modified peptide, respectively; lane 7, 5.24 μmol control peptide. (C) Normal human serum (NHS)-induced complement-mediated hemolysis was inhibited by the modified and original peptides (2.62 and 5.24 μmol) compared to the control peptide. All experiments were performed three times and data are presented as mean ± SD. *p < 0.05, **p < 0.01.

human complement C9 = assay: Microscale thermophoresis (MST) binding to human C9; conditions: for binding to human C9: NT-647-labeled human C9 1.5 μM, peptides diluted from 1.68 to 0 mM, distilled water with 0.05% Tween 20, 10 min room temperature, three independent measurements
Description: (§2) To assess the binding affinity of the peptides to human or mouse complement C9, a fluorescence-based biophysical technique known as MST (NanoTemper Technologies GmbH, Germany) was used. Briefly, human or mouse C9 was fluorescently labeled using a Monolith NT™ Protein Labeling Kit NT-647 (NanoTemper Technologies GmbH, Germany) based on the manufacturer's protocol. Next, the peptides were gradiently diluted in distilled water from 1.68 to 0 mM. The labeled human or mouse C9 (1.5 μM) was then incubated with various peptide concentrations for 10 min at room temperature before being loaded into K002 silica capillaries. Measurements were performed using a NanoTemper Monolith NT.115 instrument in distilled water containing 0.05% Tween 20. The data were analyzed using NanoTemper Analysis software (NanoTemper Technologies GmbH, Germany).
as §1

[1] = tested on: complement in normal human serum (NHS); rabbit erythrocytes; assay: NHS-induced complement-mediated hemolysis of rabbit erythrocytes (alternative pathway); type: cell-based; conditions: for inhibition of NHS-induced erythrocyte lysis, concentration dependence: NHS 1:12.5, peptide 1.31, 2.62, 5.24 μmol, Mg-EGTA, 37°C 40 min, then rabbit erythrocytes 1 × 10^8, 30 min 37°C, absorbance 412 nm; for inhibition of NHS-induced erythrocyte lysis, concentration dependence / inhibition of NHS-induced hemolysis compared to control peptide: three experiments; for inhibition of NHS-induced erythrocyte lysis at 5.24 μmol: peptide 5.24 μmol, NHS 1:12.5; for inhibition of NHS-induced hemolysis compared to control peptide: peptide 2.62 and 5.24 μmol, *p < 0.05, **p < 0.01
Description: Normal human serum (NHS) was collected from six healthy volunteers, and the donation procedure was approved by the Institutional Review Board (IRB) of Capital Medical University (approval number: 2016SY01). After venous blood was collected, it was clotted in serum separator tubes for 4 h at room temperature and then centrifuged at 1,000 g for 30 min to obtain the serum. The serum was divided into aliquots and stored at −80°C. To obtain normal mouse serum (NMS), blood was collected in the […] of mice under ether anesthesia and the serum was separated and stored as described above.
When rabbit erythrocytes are placed in xenogeneic serum (such as NHS or NMS), the alternative pathway of the complement system is activated, causing lysis of the rabbit erythrocytes. To evaluate the effects of the peptides on the complement activation-mediated erythrocyte lysis (involving the alternative complement pathway), NHS or NMS (1:12.5) was incubated with various concentrations of peptides (1.31, 2.62, and 5.24 μmol) in Mg-EGTA solution (5 mM MgCl2, 10 mM EGTA) at 37°C for 40 min before adding the mixture to freshly washed erythrocytes (1 × 10^8) in gelatin veronal-buffered saline (pH 7.4, containing 0.1% gelatin) for 30 min at 37°C. Lysis was stopped with cold Hanks' Balanced Salt Solution (HBSS^++) containing 10 mM ethylenediaminetetraacetic acid (EDTA). The samples were then centrifuged at 1,000 g for 10 min to obtain the supernatant, and the amount of released hemoglobin in the supernatant was determined by measuring the absorbance at 412 nm. The hemolytic activity relative to the water-induced lysis among the same number of erythrocytes was calculated.
as §1

recombinant mouse C9 = assay: Microscale thermophoresis (MST) binding to recombinant mouse C9; conditions: NT-647-labeled mouse C9 1.5 μM, peptides 1.68 to 0 mM, distilled water with 0.05% Tween 20, three independent measurements
Description: as §2
To evaluate whether the modified peptide can cross the species barrier to inhibit murine MAC assembly in addition to human MAC assembly and to provide a preliminary experimental basis for the in vivo mouse experiments, MST assays were used again to assess the binding ability of the peptides to recombinant mouse C9. […] To evaluate whether this binding can inhibit NMS-induced erythrocyte lysis (involving the alternative complement pathway), hemolytic assays were performed.
(A) Microscale thermophoresis assay (NanoTemper) in which biomolecular interactions are quantitated by examining the motion of the molecules along a microscopic temperature gradient induced by an infrared laser. Changes in the molecular hydration shell, charge, or size are measured using a fluorescent probe (NT-647) bound covalently to the mouse C9. Binding of control, modified and original peptides to mouse C9 were studied. […] Data points indicate the differences in normalized fluorescence (%) generated by peptides binding to mouse C9, and curves indicate the calculated fits. Error bars represent the standard error of three independent measurements. […] All experiments were performed three times and data are presented as mean ± SD. *p < 0.05, **p < 0.01.

[2] = 2 μg C9, 50 μM Zn2+, 37°C 2 h, PAGE, Coomassie blue

Substance	inhibition of Zn2+-induced C9 polymerization at 5.24 μmol (human C9; [2])	binding to human C9 (human complement C9)	inhibition of NHS-induced erythrocyte lysis, concentration dependence [1]	binding to recombinant mouse C9 (recombinant mouse C9)	inhibition of Zn2+-induced C9 polymerization, concentration dependence (human C9; 2 μg C9, 20 mM Tris pH 7.2, 37°C 40 min preincubation, 50 μM Zn2+ 2 h, peptide 1.31, 2.62, 5.24 μmol, 2.5–15% PAGE)	inhibition of Zn2+-induced C9 polymerization at 2.62 μmol (human C9; peptide 2.62 μmol, 2 μg C9, 50 μM Zn2+, 37°C 2 h, PAGE, Coomassie blue)	binding affinity to human C9 compared with original peptide (human complement C9; labeled human C9 1.5 μM, peptides 1.68 to 0 mM, Kd not given)	inhibition of NHS-induced erythrocyte lysis at 5.24 μmol [1]	inhibition of NHS-induced hemolysis compared to control peptide [1]
GKMSVMSVYKSVLS [control peptide, reference compound]	did not inhibit C9 polymerization	no binding between human C9 and the control peptide	no difference in the erythrocyte lysis among the three concentrations	could not					
Myr-GSSKSPSKKKKKKPG-ACP-VSMGKSLSSKVYVM [modified peptide, Ts-pmy-derived peptide modified with a membrane-targeting signal]	fully inhibited; also recorded: completely	human C9 could bind to both the original and modified peptides; also recorded: concentration-dependent binding	significantly inhibited in a dose-dependent manner	could bind to the recombinant mouse C9; also recorded: concentration-dependent binding	inhibited Zn^2+-induced C9 polymerization in a dose-dependent manner	slightly	binding affinity that was similar to that of the original peptide	greatest inhibition	inhibited
VSMGKSLSSKVYVM [original peptide, tetradecapeptide derived from Trichinella spiralis paramyosin (Ts-pmy)]	fully inhibited	human C9 could bind to both the original and modified peptides; also recorded: concentration-dependent binding	significantly inhibited in a dose-dependent manner	could bind to the recombinant mouse C9; also recorded: concentration-dependent binding				greatest inhibition	inhibited

From publication PMC7785802, “Therapeutic Efficacy of a Trichinella Spiralis Paramyosin-Derived Peptide Modified With a Membrane-Targeting Signal in Mice With Antigen-Induced Arthritis” (Frontiers in Microbiology, 2020)
